Data set [1] relates to S. aureus (ATCC 25923). The data set is described as follows: Effect of salt (NaCl) on antimicrobial activity. Format: cell-based, Staphylococcus aureus. Further details: key: +: presence of activity; −: absence of activity. The settings on record: 4 h, CFU counted after 24 h at 37 °C, triplicate. The method, then:
(§1) To investigate the activities of the EntP peptide in the presence of high salt concentrations, the MIC was determined as described above, except that fixed concentration of NaCl was added to each well of the microtiter plate. Overnight cultures of S. aureus (ATCC 25923) and E. coli (ATCC 25922) as Gram-positive and Gram-negative model strains were incubated in MHB with 0, 50, 100, or 150 mM NaCl for 4 h. Bacteria were serially diluted and plated in triplicate on Trypticase soy agar (HiMedia, India) plates. CFUs were counted after 24 h of incubation at 37 °C. The stability of EntP peptide in 50% human plasma was evaluated as previously described (Hou et al. [2011]). The human plasma was determined to contain no antimicrobial activity before the test. Then 800 μg/ml of recombinant EntP peptide was diluted 1:1 with fresh human plasma and incubated at 37 °C for 0, 3, or 6 h. After incubation, the antimicrobial activity of each sample was determined by MIC assays with S. aureus (ATCC 25923) and E. coli (ATCC 25922).

The test system of the next data set is Shigella dysenteriae. The data set is described as follows: MIC, broth micro-dilution (CLSI). Format: cell-based. The settings on record: for MIC: Shigella dysenteriae, read-out: Antimicrobial activity MIC.
In the next data set the test system is MRSA ATCC 33591. The data set is described as follows: MIC, broth micro-dilution (CLSI). The settings on record: for MIC: Staphylococcus aureus, read-out: Antimicrobial activity MIC.
Data set [2] deals with Klebsiella pneumonia ATCC 700603. The data set is described as follows: MIC, broth micro-dilution (CLSI). The settings on record: for MIC: Klebsiella pneumoniae, ATCC700603, read-out: Antimicrobial activity MIC.
In data set [3] the test system is Staphylococcus aureus ATCC 25923. Description: MIC, broth micro-dilution (CLSI). The settings on record: for MIC: Staphylococcus aureus, ATCC25923, read-out: Antimicrobial activity MIC.
The test system of data set [4] is Pseudomonas aeruginosa ATCC 27853. The data set is described as follows: MIC, broth micro-dilution (CLSI). The settings on record: for MIC: Pseudomonas aeruginosa, ATCC27853, read-out: Antimicrobial activity MIC.
Data set [5] relates to Pseudomonas aeruginosa VIM+. The data set is described as follows: MIC, broth micro-dilution (CLSI). To be noted: for MIC: Pseudomonas aeruginosa, read-out: Antimicrobial activity MIC.
The subject of data set [6] is E. coli (ATCC 25922). The data set is described as follows: Stability in 50% human plasma, read out as antimicrobial activity (MIC assay). The settings on record: 800 μg/ml peptide diluted 1:1 with fresh human plasma (50%), 37 °C. Format: in vitro ADME, Escherichia coli. Further details: key: +: presence of activity; −: absence of activity. How it is done:
as §1

Another data set concerns Salmonella typhi. The data set is described as follows: MIC, broth micro-dilution (CLSI). Format: cell-based. To be noted: Salmonella typhi clinical isolate, MHB, approx. 5 × 10^5 CFU/ml, overnight 37 °C, triplicate; for MIC: Salmonella enterica, read-out: Antimicrobial activity MIC.
For data set [7], the system named is S. aureus (ATCC 25923) and E. coli (ATCC 25922). Description: Antimicrobial activity in 50% human plasma, overall statement. Format: in vitro ADME. To be noted: 37 °C, 0, 3 or 6 h, read-out MIC assay. The method, then:
as §1

The subject of another data set is VRE. The data set is described as follows: MIC, broth micro-dilution (CLSI). The settings on record: for MIC: Enterococcus, VRE, read-out: Antimicrobial activity MIC.
Data set [8] deals with Enterococcus faecalis ATCC 29212. Description: MIC, broth micro-dilution (CLSI). The settings on record: for MIC: Enterococcus faecalis, ATCC29212, read-out: Antimicrobial activity MIC.
The test system of another data set is Listeria monocytogenes. The data set is described as follows: MIC, broth micro-dilution (CLSI). The settings on record: for MIC: Listeria monocytogenes, read-out: Antimicrobial activity MIC.
Data set [9] relates to S. aureus (ATCC 25923). Description: Stability in 50% human plasma, read out as antimicrobial activity (MIC assay). Type of data set: in vitro ADME, Staphylococcus aureus. Further details: key: +: presence of activity; −: absence of activity. The settings on record: 800 μg/ml peptide diluted 1:1 with fresh human plasma (50%), 37 °C. The method, then: as §1
The test system of data set [10] is Staphylococcus aureus ATCC 29213. Description: MIC, broth micro-dilution (CLSI). To be noted: for MIC: Staphylococcus aureus, ATCC29213, read-out: Antimicrobial activity MIC.
Data set [11] has as its system E. coli (ATCC 25922). The data set is described as follows: Effect of salt (NaCl) on antimicrobial activity. Format: cell-based, Escherichia coli. Further details: key: +: presence of activity; −: absence of activity. The settings on record: 4 h, CFU counted after 24 h at 37 °C, triplicate. How it is done: as §1
For another data set, the system named is Salmonella paratyphi C. Description: MIC, broth micro-dilution (CLSI). Type of data set: cell-based. The settings on record: Salmonella enterica, read-out: Antimicrobial activity MIC.
The subject of a further data set is E. coli ATCC 25922. The data set is described as follows: MIC, broth micro-dilution (CLSI). To be noted: Escherichia coli, ATCC25922, read-out: Antimicrobial activity MIC.
Data set [12] deals with Acinetobacter baumannii ATCC 13304. Description: MIC, broth micro-dilution (CLSI). To be noted: ATCC13304, read-out: Antimicrobial activity MIC.

Converted amounts (≈) assume the structure as drawn. Ends that are not written are not given here.

Consider “enterocin P (ATRSYGNGVYCNNSKCWVNWGEAKENIAGIVISGWASGLAGMGH-{H2N-H2N-H2N-H2N-H2N-H2N}; ends and bridges not checked; UniProt O30434 28-71, looked up) [EntP, class II bacteriocin]”, for which the “Activity after treatment with salt” value is “+” with S. aureus (ATCC 25923) [1] (0 mM NaCl in MHB); “+” in the data set on S. aureus (ATCC 25923) [1] (50 mM NaCl in MHB); “+” with S. aureus (ATCC 25923) [1] (100 mM NaCl in MHB); “−” in the data set on S. aureus (ATCC 25923) [1] (150 mM NaCl in MHB); “+” in the data set with E. coli (ATCC 25922) [11] (0 mM NaCl in MHB); “+” in the data set on E. coli (ATCC 25922) [11] (50 mM NaCl in MHB). The figures for the “Activity after treatment with salt” value with E. coli (ATCC 25922) [11] (100 mM NaCl in MHB) and in the data set with E. coli (ATCC 25922) [11] (150 mM NaCl in MHB) were “+” and “−”, respectively. For the same compound, the “Antimicrobial activity MIC” value in the data set with Shigella dysenteriae (Shigella dysenteriae clinical isolate, broth micro-dilution (CLSI), MHB, approx. 5 × 10^5 CFU/ml, overnight 37 °C, triplicate) worked out at 128 µg/mL; in the data set with MRSA ATCC 33591 (MRSA ATCC 33591 (resistant strain), broth micro-dilution (CLSI), MHB, approx. 5 × 10^5 CFU/ml, overnight 37 °C, triplicate), 64 µg/mL; in data set [2] (Klebsiella pneumonia ATCC 700603 (resistant strain), broth micro-dilution (CLSI), MHB, approx. 5 × 10^5 CFU/ml, overnight 37 °C, triplicate) it was 8 µg/mL; in data set [3] (Staphylococcus aureus ATCC 25923, broth micro-dilution (CLSI), MHB, approx. 5 × 10^5 CFU/ml, overnight 37 °C, triplicate), 8 µg/mL; in [4] (Pseudomonas aeruginosa ATCC 27853, broth micro-dilution (CLSI), MHB, approx. 5 × 10^5 CFU/ml, overnight 37 °C, triplicate) it was 8 µg/mL; in [5] (Pseudomonas aeruginosa VIM+ (resistant strain), broth micro-dilution (CLSI), MHB, approx. 5 × 10^5 CFU/ml, overnight 37 °C, triplicate), 256 µg/mL. The “Antimicrobial activity MIC” value in the data set with Salmonella typhi stood at 16 µg/mL; with VRE (VRE clinical isolate (resistant strain), broth micro-dilution (CLSI), MHB, approx. 5 × 10^5 CFU/ml, overnight 37 °C, triplicate) it was 64 µg/mL; in [8] (Enterococcus faecalis ATCC 29212, broth micro-dilution (CLSI), MHB, approx. 5 × 10^5 CFU/ml, overnight 37 °C, triplicate), 16 µg/mL; with Listeria monocytogenes (Listeria monocytogenes clinical isolate, broth micro-dilution (CLSI), MHB, approx. 5 × 10^5 CFU/ml, overnight 37 °C, triplicate), 32 µg/mL; in data set [10] (Staphylococcus aureus ATCC 29213, broth micro-dilution (CLSI), MHB, approx. 5 × 10^5 CFU/ml, overnight 37 °C, triplicate), 8 µg/mL. The “Activity after treatment with plasma” value in the data set with E. coli (ATCC 25922) [6] (0 h), in the data set on E. coli (ATCC 25922) [6] (3 h), in the data set with E. coli (ATCC 25922) [6] (6 h), in the data set on S. aureus (ATCC 25923) [9] (0 h), in the data set with S. aureus (ATCC 25923) [9] (3 h) and with S. aureus (ATCC 25923) [9] (6 h) was “+” in each case. Moreover, the “Antimicrobial activity in 50% human plasma compared with PBS” value in [7] is on record as “not significantly different from that in PBS”.
For the compound `CNC(C)C1CCC(N)C(OC2C(N)CC(N)C(OC3OCC(C)(O)C(NC)C3O)C2O)O1` (stereo not drawn) [Gentamicin], the MIC in the data set with Shigella dysenteriae was 4 µg/mL (≈ 8.38 µM); in the data set with Salmonella paratyphi C, at most 1 µg/mL; with MRSA ATCC 33591, at least 16 µg/mL; in [2], at least 16 µg/mL; in data set [3], at most 1 µg/mL; in data set [4], at most 16 µg/mL. Also, the minimal inhibitory concentration (MIC) with E. coli ATCC 25922 is at most 1 µg/mL; in [5], at least 16 µg/mL; in the data set with Salmonella typhi it was at most 2 µg/mL; in the data set on VRE it was at least 16 µg/mL; in [8], at most 1 µg/mL; in data set [12] it was at least 16 µg/mL. In addition, the MIC in the data set on Listeria monocytogenes is 8 µg/mL (≈ 16.8 µM); in [10], at most 1 µg/mL.
Turning to `CN[C@H](CC(C)C)C(=O)N[C@H]1C(=O)N[C@@H](CC(N)=O)C(=O)N[C@H]2C(=O)N[C@H]3C(=O)N[C@H](C(=O)N[C@H](C(=O)O)c4cc(O)cc(O)c4-c4cc3ccc4O)[C@H](O)c3ccc(c(Cl)c3)Oc3cc2cc(c3O[C@@H]2O[C@H](CO)[C@@H](O)[C@H](O)[C@H]2O[C@H]2C[C@](C)(N)[C@H](O)[C@H](C)O2)Oc2ccc(cc2Cl)[C@H]1O` [Vancomycin], the MIC in the data set with MRSA ATCC 33591 was at least 16 µg/mL; in data set [3], at most 1 µg/mL; with VRE it was at least 32 µg/mL; in data set [8], at most 1 µg/mL; in the data set on Listeria monocytogenes, 1 µg/mL (≈ 0.69 µM); in data set [10] it was at most 1 µg/mL.
For `CCN1CCN(C(=O)N[C@@H](C(=O)N[C@@H]2C(=O)N3[C@@H]2SC(C)(C)[C@@H]3C(=O)O)c2ccccc2)C(=O)C1=O` [Piperacillin], the MIC was 4 µg/mL (≈ 7.73 µM) in the data set on Shigella dysenteriae; at most 8 µg/mL in the data set with Salmonella paratyphi C; at least 128 µg/mL in [2]; at most 8 µg/mL in [4]; at most 8 µg/mL in the data set with E. coli ATCC 25922; at least 128 µg/mL in [5]. For the same compound, the MIC with Salmonella typhi was 4 µg/mL (≈ 7.73 µM); in data set [12], at least 64 µg/mL; in the data set with Listeria monocytogenes, 4 µg/mL (≈ 7.73 µM).
Turning to `CC1(C)S[C@@H]2[C@H](NC(=O)[C@H](N)c3ccccc3)C(=O)N2[C@H]1C(=O)O` [Ampicillin], the MIC is 4 µg/mL (≈ 11.4 µM) in the data set on Shigella dysenteriae; 2 µg/mL (≈ 5.72 µM) with Salmonella paratyphi C; above 128 µg/mL in [2]; at most 1 µg/mL in data set [3]; at most 2 µg/mL in the data set on E. coli ATCC 25922; 2 µg/mL (≈ 5.72 µM) in the data set on Salmonella typhi. Also, the MIC in [8] is at most 1 µg/mL; in the data set on Listeria monocytogenes, 2 µg/mL (≈ 5.72 µM); in [10], at most 1 µg/mL.
On to `CC(C)(O/N=C(\C(=O)N[C@@H]1C(=O)N2C(C(=O)[O-])=C(C[n+]3ccccc3)CS[C@H]12)c1csc(N)n1)C(=O)O` [Ceftazidime], for which the MIC is at most 2 µg/mL with Shigella dysenteriae; 4 µg/mL (≈ 7.32 µM) in the data set on Salmonella paratyphi C; 16 µg/mL (≈ 29.3 µM) with MRSA ATCC 33591; at least 16 µg/mL in data set [2]; at most 2 µg/mL in [3]; 2 µg/mL (≈ 3.66 µM) in [4]. The minimal inhibitory concentration (MIC) with E. coli ATCC 25922 was at most 2 µg/mL; in data set [5], at least 32 µg/mL; in the data set with Salmonella typhi, 4 µg/mL (≈ 7.32 µM); with VRE it was 32 µg/mL (≈ 58.5 µM); in [8] it was at most 4 µg/mL; in [12], at least 32 µg/mL. Moreover, the MIC in the data set with Listeria monocytogenes is at most 4 µg/mL; in [10] it was at most 2 µg/mL.

Source of the values: paper PMC6323060, “Expression in eukaryotic cells and purification of synthetic gene encoding enterocin P: a bacteriocin with broad antimicrobial spectrum” (AMB Express, 2019).
